Data set [1] is described as follows: Human liver microsome stability (Assays #1-#4). The format is in vitro ADME. The settings on record: Assay #1, substrate 1 μM, protein 0.1 mg/mL, 37° C.; for half-life at 1 μM: human, liver microsomes. As to the method: The results for Examples 1 and 3 were t112=87 and 32 minutes with 78% and 60% remaining after 30 minutes, respectively, compared to shorter half-lives and lesser amounts left for Examples 2 and 4-6 (see Note 6 for conditions).
Under similar in vitro human liver microsome preparation stability assay conditions at 37° C. for 30 or 60 minutes in a separate head-to-head experiments (Assay #2 and #3) (see Note 6 for conditions) with Examples 1 and 3 and the comparator Compound #290 from U.S. Pat. No. 5,591,737, the amounts left after the 30 minute incubation (with […] microsome protein vs 0.1 mg/mL for Assay #3) were 67, 99 and 79% and for the 60 minute incubation were 94, 73 and 77%, respectively. Similarly, in a third repeat assay (Assay #4 with—NADPH controls) (see Note 6 for conditions), 90 and 72% were remaining for Example 1 and the comparator compound, respectively. […]
Note 6: Human Liver Microsome Assay # 1-3 conditions. • Assay experiment #1: Substrate concentration=1 μM; Protein concentration=0.1 mg/mL; incubation time=30 minutes at 37° C. • Assay experiment #2: Substrate concentration=1 μM; Protein concentration 0.1 mg/mL; incubation time=30 minutes at 37° C. • Assay experiment #3: Substrate concentration=1 μM; Protein concentration=0.1 mg/mL; incubation time=60 minutes at 37° C. • Assay experiment #4: Substrate concentration=1 μM; Protein concentration=1.0 mg/mL; incubation time=60 minutes at 37° C.
(In general: Liver microsomes are vesicles of endoplasmic reticulum, rich in cytochrome P450 enzymes.)

Data set [2] deals with T1, Human Leukocyte Elastase (HLE) (Homo sapiens, UniProt P08246).
T1 construct: The PMN lysates were prepared by isolating human neutrophils from whole blood; from tissue; host or cells: human neutrophils (PMN) isolated from whole blood, lysed by sonication in PBS
T1 sequence (P08246 30-267): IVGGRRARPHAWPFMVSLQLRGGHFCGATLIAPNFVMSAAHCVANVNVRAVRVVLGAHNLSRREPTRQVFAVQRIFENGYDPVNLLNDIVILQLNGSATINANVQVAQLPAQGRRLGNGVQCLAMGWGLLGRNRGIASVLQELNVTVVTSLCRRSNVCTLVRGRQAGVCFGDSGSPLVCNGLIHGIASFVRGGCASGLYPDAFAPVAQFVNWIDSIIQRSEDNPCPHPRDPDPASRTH
Put plainly: HLE time-dependent inactivation assay, purified elastase. Format: biochemical. The settings on record: purified elastase 3 nM; inhibitor 26.5 nM; substrate 1 mM. The procedure:
(§1) As exemplified in Table 1, the Examples 1-6 of this application were determined to be potent, mechanism-based inactivators of Human Leukocyte Elastase (HLE) in two different in vitro time-dependent incubation assays. The two assays are described at the end of this Biological Data Section in Note 1. See the literature references in Note 2 for a discussion of the mechanism for this type of beta-lactam inactivation of HLE. Two sources of enzyme were used; either purified elastase or crude extracts of human polymorphonuclear leukocytes (PMN) containing elastase activity. […] For the compound of Example 1, the results were 638,000 M^−1 sec^−1 (average of n=3) and 809,000 M^−1 sec^−1 (n=4), respectively, and for Example 3, 804,000 M^−1 sec^−1 (average of n=4) and 952,000 M^−1 sec^−1 (n=5). […] Note that in this assay, head-to-head comparisons are particularly valuable.
(§2) Note 1: Enzyme Assays for the Inhibition of Human Polymorphonuclear Leukocyte Elastase Via Hydrolysis of N-Methyoxysuccinyl-alanyl-alanyl-prolylalanine-p-nitroanilide Reagent.
(§3) Prepare substrate by first dissolving in DMSO to 30 mg/ml (50 mM). Further dilute the substrate to 10 mM and add 25 μl to a final volume of 250 μl for a final concentration of 1 mM in the assay.
(§4) Prepare the enzyme in TES Buffer (0.045M TES (N-tris[hydroxymethyl]methyl-2-mino-ethanesulfonic acid), 0.45 M NaCl, pH 7.5.). Two sources of enzyme were used; either crude extracts of human polymorphonuclear leukocytes (PMN) containing elastase activity or purified elastase. The PMN lysates were prepared by isolating human neutrophils from whole blood after dextran sedimentation, ficoll density separation and red blood cell lysis. The neutrophils were lysed in PBS with sonciation and the concentration of active enzyme was determined by utilizing a standard curve of purified enzyme. For the purified elastase, the enzyme was resuspended at 10 mg/ml (˜340 μM) in 0.02M NaOAc, 50% glycerol. For both the PMN lysate and purified enzyme, a further dilution of enzyme was made to 30 nM and 25 μl was added to a final volume of 250 μl. The final concentration of enzyme in the assay was 3 nM.
(§5) The inhibitors to be tested were dissolved in DMSO at 10 mM. Directly before use, the inhibitors were further diluted into TES Buffer to 265 nM and […] was added to a final volume of 250 μl. The final concentration of inhibitor in the assay was 26.5 nM.
(§6) In a 96-well plate (flat bottom, polystyrene) 175 μl TES Buffer, 25 μl substrate, 25 μl inhibitor and 25 μl enzyme were added. After thoroughly mixing, the plate was then read in a spectrophotometer at 410 nm for 30 minutes counting every 10 seconds. Results were expressed as Kinact/Ki which is the second order rate constant in per mole per second for inactivation of the enzyme.

In data set [3] the target is T1, Human Leukocyte Elastase (HLE). Put plainly: HLE time-dependent inactivation assay, PMN cell lysate source of HLE. The settings on record: 3 nM, inhibitor 26.5 nM, substrate 1 mM. Format: biochemical. The procedure:
as §1, §2, §3, §4, §5, §6

From patent US20100216761A1, “NOVEL AZETIDINONES USEFUL AS INHIBITORS OF ELASTASE” (priority 2007, published 2010) come the findings set out here.

Regarding `CCC[C@@H](NC(=O)N1C(=O)C(CC)(CC)[C@@H]1Oc1ccc(C(=O)N(C)CCN(C)C)cc1)c1ccc(C(F)(F)F)cc1` [Example 4, 2-(S)-[4-(((2-(Dimethylamino)ethyl)methylamino)carbonyl)phenoxy]-3,3-diethyl-N-[1-(R)-(4-(trifluoromethyl)phenyl)butyl]-4-oxo-1-azetidinecarboxamide], in data set [1], the “% Left @ 30 min” value was determined as 51% and the half-life at 1 μM turned out to be 25 min. The kinact/KI in data set [2] was found to be 290000 M⁻¹ s⁻¹. In addition, the kinact/KI in data set [3] was 427000 M⁻¹ s⁻¹.
In the case of `CCC[C@@H](NC(=O)N1C(=O)C(CC)(CC)[C@@H]1Oc1ccc(C(=O)N(CC)CCN(CC)CC)cc1)c1ccc(C(F)(F)F)cc1` [Example 5, 2-(S)-[4-(((2-(Diethylamino)ethyl)ethylamino)carbonyl)phenoxy]-3,3-diethyl-N-[1-(R)-(4-(trifluoromethyl)phenyl)butyl]-4-oxo-1-azetidinecarboxamide], in data set [1], the “% Left @ 30 min” value worked out at 31% and the half-life at 1 μM is 30 min. The kinact/KI in data set [3] amounted to 375000 M⁻¹ s⁻¹.

Broadly, the half-life is the time in which the quantity being followed falls by half. Usually kinact/KI stands for the second-order rate constant of inactivation.
